Source: patent publication US9546150B2, “Substituted quinazolin-4-ones for inhibiting ubiquitin specific protease 7” (HYBRIGENICS SA, priority 2011, dated 2017)

How the values were obtained:
[1] = system: HCT116 colon cancer cells; test: HCT116 cell viability and proliferation assay (MTS); assay type: cell-based; details: Homo sapiens, HCT-116, HCT116, 72 hours, read-out: Cell viability (MTS): HCT116 GI50 Day 3
Description: HCT116 colon cancer cells were obtained from ATCC (American Type Culture Collection), and maintained in Mc Coy's 5A medium containing 10% FBS, 3 mM glutamine and 1% penicillin/streptomycin. Cells were incubated at 37° C. in a humidified atmosphere containing 5% CO2.
Cell viability was assayed using the MTS technique in 96-well culture plates (CellTiter 96® Aqueous Non-Radioactive Cell Proliferation Assay, Promega) according to the manufacturer's instructions. MTS (3-(4,5-dimethyl-thiazol-2-yl)-5-(3-carboxy-methoxyphenyl)-2-(4-sulfophenyl)-2H-tetra-zolium) is a MTT-derived tetrazolium that is reduced in metabolically active cells into a soluble, cell-permeant formazan. The amount of formazan, detected by its absorbance at 492 nm is proportional to the number of living, metabolically active cells.
10^3 HCT116 cells were seeded per well. 24 hours later, the medium was changed and the cells treated in triplicate with the concentrations of each compound from 100 μM to 50 nM. The compounds were diluted in 100% DMSO, whose final concentration on cells was kept at 0.5%.
Cells were incubated with the compounds for 72 hours, and their viability then assayed by the addition of MTS for 2 hours. Absorbance at 492 nm was measured directly from the 96-well culture plates. GI50 (Growth Inhibition 50) concentrations for each compound were calculated using a sigmoidal variable slope fit (Prism 4.0, Graphpad Softwares). Values represent mean of three independent experiments.

[2] = biological target: USP10 (Homo sapiens, UniProt Q14694); test: HAUbVS competition assay in HEK293 cell lysates, USP10; assay type: biochemical; details: 12.5-200 μM
Chain of USP10 (Q14694 whole entry): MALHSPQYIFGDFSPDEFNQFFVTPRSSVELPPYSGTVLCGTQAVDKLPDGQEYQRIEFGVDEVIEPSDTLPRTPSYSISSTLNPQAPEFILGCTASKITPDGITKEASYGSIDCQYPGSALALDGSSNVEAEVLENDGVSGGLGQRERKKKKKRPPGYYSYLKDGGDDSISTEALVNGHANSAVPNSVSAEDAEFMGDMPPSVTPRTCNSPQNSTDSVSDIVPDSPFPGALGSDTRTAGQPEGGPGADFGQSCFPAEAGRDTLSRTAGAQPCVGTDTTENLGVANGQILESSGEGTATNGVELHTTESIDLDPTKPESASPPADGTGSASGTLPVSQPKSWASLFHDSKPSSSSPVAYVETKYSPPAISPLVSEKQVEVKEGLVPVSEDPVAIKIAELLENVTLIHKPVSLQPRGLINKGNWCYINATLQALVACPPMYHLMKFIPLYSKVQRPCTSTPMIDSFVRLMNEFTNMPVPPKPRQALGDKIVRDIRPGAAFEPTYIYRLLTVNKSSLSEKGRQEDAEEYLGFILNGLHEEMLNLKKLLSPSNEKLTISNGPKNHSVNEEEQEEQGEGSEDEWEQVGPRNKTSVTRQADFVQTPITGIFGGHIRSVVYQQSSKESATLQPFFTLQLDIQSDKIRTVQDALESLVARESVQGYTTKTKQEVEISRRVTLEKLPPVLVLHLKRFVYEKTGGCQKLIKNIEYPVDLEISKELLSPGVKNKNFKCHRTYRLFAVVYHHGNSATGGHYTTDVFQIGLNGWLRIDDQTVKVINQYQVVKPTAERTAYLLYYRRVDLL

[3] = biological target: T1, CYLD (Homo sapiens, UniProt Q9NQC7); test: HAUbVS competition assay in HEK293 cell lysates, CYLD; assay type: biochemical; details: 12.5-200 μM
T1 sequence (Q9NQC7 1-956): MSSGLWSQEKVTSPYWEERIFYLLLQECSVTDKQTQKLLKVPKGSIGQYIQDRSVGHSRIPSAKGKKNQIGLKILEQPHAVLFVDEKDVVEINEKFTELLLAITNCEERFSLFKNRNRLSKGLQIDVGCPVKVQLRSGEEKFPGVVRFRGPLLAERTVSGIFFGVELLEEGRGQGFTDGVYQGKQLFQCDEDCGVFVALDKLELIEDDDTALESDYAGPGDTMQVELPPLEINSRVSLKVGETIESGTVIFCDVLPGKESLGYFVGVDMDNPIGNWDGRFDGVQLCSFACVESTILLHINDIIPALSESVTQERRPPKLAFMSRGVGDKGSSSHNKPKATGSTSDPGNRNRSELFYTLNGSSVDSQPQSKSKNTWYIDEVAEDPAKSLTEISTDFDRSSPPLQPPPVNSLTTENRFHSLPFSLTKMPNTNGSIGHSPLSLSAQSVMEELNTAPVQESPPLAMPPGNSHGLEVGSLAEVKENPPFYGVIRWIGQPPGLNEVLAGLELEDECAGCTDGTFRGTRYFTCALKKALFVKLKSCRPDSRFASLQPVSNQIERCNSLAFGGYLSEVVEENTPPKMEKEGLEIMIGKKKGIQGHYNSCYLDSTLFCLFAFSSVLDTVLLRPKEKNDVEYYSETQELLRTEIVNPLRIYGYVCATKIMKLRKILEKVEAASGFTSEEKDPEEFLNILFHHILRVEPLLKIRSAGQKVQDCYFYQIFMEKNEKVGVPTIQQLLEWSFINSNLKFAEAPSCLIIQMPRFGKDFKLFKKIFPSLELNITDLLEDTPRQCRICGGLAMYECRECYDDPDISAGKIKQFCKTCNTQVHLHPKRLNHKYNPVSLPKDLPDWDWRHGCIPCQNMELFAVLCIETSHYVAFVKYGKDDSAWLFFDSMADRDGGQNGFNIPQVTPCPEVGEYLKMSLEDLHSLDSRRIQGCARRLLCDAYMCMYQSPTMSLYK

[4] = biological target: T2, USP7 (Homo sapiens, UniProt Q93009); test: Direct binding to USP7 by ESI-MS; details: 50/50/1 H2O/CH3CN/HCOOH, Vc=120 V, Pi=4 mbar
T2 sequence (Q93009 whole entry): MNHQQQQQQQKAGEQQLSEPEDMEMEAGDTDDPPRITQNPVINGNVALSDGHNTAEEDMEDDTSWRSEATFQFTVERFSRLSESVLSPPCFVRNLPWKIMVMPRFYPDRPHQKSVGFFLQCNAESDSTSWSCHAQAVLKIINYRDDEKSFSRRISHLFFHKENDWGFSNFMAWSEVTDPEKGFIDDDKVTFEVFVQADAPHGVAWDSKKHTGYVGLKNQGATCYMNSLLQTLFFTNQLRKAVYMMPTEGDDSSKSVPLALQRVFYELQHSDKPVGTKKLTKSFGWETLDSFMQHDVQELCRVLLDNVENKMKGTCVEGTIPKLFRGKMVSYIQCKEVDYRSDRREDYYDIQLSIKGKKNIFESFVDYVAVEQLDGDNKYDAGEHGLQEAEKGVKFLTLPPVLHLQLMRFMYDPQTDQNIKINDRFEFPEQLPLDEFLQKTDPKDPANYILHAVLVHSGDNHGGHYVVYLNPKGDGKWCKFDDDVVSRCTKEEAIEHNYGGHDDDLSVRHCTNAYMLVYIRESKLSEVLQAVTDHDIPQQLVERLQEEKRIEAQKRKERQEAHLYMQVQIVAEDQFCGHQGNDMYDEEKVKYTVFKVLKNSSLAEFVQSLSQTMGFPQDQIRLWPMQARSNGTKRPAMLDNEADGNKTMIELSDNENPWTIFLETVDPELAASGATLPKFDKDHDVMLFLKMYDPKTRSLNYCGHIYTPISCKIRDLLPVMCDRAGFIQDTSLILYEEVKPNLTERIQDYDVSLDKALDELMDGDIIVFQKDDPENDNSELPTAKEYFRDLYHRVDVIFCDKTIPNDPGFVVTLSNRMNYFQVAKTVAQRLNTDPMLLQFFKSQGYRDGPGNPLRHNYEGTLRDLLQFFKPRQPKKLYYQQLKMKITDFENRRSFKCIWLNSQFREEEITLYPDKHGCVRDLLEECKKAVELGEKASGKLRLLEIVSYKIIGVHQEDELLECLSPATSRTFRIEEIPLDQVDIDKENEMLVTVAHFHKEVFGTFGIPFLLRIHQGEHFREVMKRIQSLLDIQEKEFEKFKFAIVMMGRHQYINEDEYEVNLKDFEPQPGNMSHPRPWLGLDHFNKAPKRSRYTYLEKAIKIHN

[5] = biological target: T2, USP7; test: HAUbVS competition assay in HEK293 cell lysates, USP7; assay type: biochemical; details: for blocking of HAUbVS labeling of USP7 (anti-USP7 antibody): HEK293 cell lysates, 12.5-200 μM, dose-dependent; for anti-HA immunoblot band at the size corresponding to HA-Ub-VS-USP7: lysed HEK293 cells, different doses, no change of the other bands
[6] = biological target: T3, UCH-L3 (Homo sapiens, UniProt P15374); test: HAUbVS competition assay in HEK293 cell lysates, UCH-L3; assay type: biochemical; details: 12.5-200 μM
T3 sequence (P15374 1-230): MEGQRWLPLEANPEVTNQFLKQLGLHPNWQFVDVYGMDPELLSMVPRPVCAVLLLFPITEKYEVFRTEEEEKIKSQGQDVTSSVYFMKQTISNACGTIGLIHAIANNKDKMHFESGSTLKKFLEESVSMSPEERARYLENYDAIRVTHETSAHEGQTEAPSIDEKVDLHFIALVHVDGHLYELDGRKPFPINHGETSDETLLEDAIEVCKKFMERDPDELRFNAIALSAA

SMILES	GI50 [1] [µM]	binding to USP7 under dissociating conditions [4]	other results
CC(Cc1cccs1)C(=O)N1CCC(O)(Cn2cnc3cc(Cl)ccc3c2=O)CC1 (stereo not drawn) [Example 11, 7-chloro-3-({4-hydroxy-1-[2-methyl-3-(thiophen-2-yl)propanoyl]piperidin-4-yl}methyl)-3,4-dihydroquinazolin-4-one]	25	–	–
O=C(CCc1cccs1)N1CCC(O)(Cn2cnc3ccccc3c2=O)CC1 [Example 12, 3-({4-hydroxy-1-[3-(thiophen-2-yl)propanoyl]piperidin-4-yl}methyl)-3,4-dihydroquinazolin-4-one]	253	–	–
CC(Cc1cccs1)C(=O)N1CCC(O)(Cn2cnc3ccccc3c2=O)CC1 (stereo not drawn) [Example 5, 3-({4-hydroxy-1-[2-methyl-3-(thiophen-2-yl)propanoyl]piperidin-4-yl}methyl)-3,4-dihydroquinazolin-4-one]	113	no binding was observed	blocking of HAUbVS labeling of USP10 [2]: without any cross-reaction; blocking of HAUbVS labeling of CYLD [3]: without any cross-reaction; blocking of HAUbVS labeling of USP7 (anti-USP7 antibody) [5]: efficiently blocked labeling of USP7; anti-HA immunoblot band at the size corresponding to HA-Ub-VS-USP7 [5]: almost completely eliminated; blocking of HAUbVS labeling of UCH-L3 [6]: without any cross-reaction
CC(Cc1ccccc1)C(=O)N1CCC(O)(Cn2cnc3ccccc3c2=O)CC1 (stereo not drawn) [Example 13, 3-{[1-(2-benzylpropanoyl)-4-hydroxypiperidin-4-yl]methyl}-3,4-dihydroquinazolin-4-one]	103	–	–
O=C(CCc1ccccc1)N1CCC(O)(Cn2cnc3ccccc3c2=O)CC1 [Example 1, 3-{[4-hydroxy-1-(3-phenylpropanoyl)piperidin-4-yl]methyl}-3,4-dihydroquinazolin-4-one]	> 500	no binding was observed	–
O=C(CCC1CCCC1)N1CCC(O)(Cn2cnc3ccccc3c2=O)CC1 [Example 3, 3-{[1-(3-cyclopentylpropanoyl)-4-hydroxypiperidin-4-yl]methyl}-3,4-dihydroquinazolin-4-one]	93	no binding was observed	–
CC(Cc1ccccc1)C(=O)N1CCC(O)(Cn2cnc3cc(Cl)ccc3c2=O)CC1 (stereo not drawn) [Example 14, 3-{[1-(2-benzylpropanoyl)-4-hydroxypiperidin-4-yl]methyl}-7-chloro-3,4-dihydroquinazolin-4-one]	28	–	–

Further lines, with some results ahead:

GI50 [1] [µM]	binding to USP7 under dissociating conditions [4]	SMILES	other results
> 500	–	COc1cc2ncn(CC3(O)CCN(C(=O)C(C)C)CC3)c(=O)c2cc1OC [Example 7, 3-{[4-hydroxy-1-(2-methylpropanoyl)piperidin-4-yl]methyl}-6,7-dimethoxy-3,4-dihydroquinazolin-4-one]	–
19	–	O=C(CCC1CCCC1)N1CCC(O)(Cn2cnc3cc(Cl)ccc3c2=O)CC1 [Example 4, 7-chloro-3-{[1-(3-cyclopentylpropanoyl)-4-hydroxypiperidin-4-yl]methyl}-3,4-dihydroquinazolin-4-one]	–
67	no binding was observed	O=C(CCc1ccccc1)N1CCC(O)(Cn2cnc3cc(Cl)ccc3c2=O)CC1 [Example 2, 7-chloro-3-{[4-hydroxy-1-(3-phenylpropanoyl)piperidin-4-yl]methyl}-3,4-dihydroquinazolin-4-one]	blocking of HAUbVS labeling of USP10 [2]: without any cross-reaction; blocking of HAUbVS labeling of CYLD [3]: without any cross-reaction; blocking of HAUbVS labeling of USP7 (anti-USP7 antibody) [5]: efficiently blocked labeling of USP7; anti-HA immunoblot band at the size corresponding to HA-Ub-VS-USP7 [5]: almost completely eliminated; blocking of HAUbVS labeling of UCH-L3 [6]: without any cross-reaction
